Consider five molecules from article PMC3525729 (Bioorganic & medicinal chemistry letters, 2012).

Substitutions are numbered along the chain they refer to. A value given as a limit tells only on which side of the number the result lay.

For one series, the target named is T1, M5 (Homo sapiens, UniProt P08912).
T1 sequence (P08912 1-532): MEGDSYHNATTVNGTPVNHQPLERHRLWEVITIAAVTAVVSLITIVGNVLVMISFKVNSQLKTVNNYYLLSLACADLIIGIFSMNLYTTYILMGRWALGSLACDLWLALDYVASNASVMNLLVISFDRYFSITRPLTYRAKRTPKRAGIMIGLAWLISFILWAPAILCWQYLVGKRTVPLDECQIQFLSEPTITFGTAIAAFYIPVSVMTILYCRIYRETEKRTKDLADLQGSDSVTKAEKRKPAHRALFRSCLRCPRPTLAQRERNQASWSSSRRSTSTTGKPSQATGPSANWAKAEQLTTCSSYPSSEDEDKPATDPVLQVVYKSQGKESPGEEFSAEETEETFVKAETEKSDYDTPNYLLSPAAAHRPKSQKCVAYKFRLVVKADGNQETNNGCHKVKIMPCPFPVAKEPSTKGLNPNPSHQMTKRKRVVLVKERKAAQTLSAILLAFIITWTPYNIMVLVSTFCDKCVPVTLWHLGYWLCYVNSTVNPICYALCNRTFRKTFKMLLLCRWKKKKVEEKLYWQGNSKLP
Nature of the series: M5 antagonist screen. It is filed as cell-based.

In the next series the target is T2, M4 (Homo sapiens, UniProt P08173).
T2 sequence (P08173 1-479): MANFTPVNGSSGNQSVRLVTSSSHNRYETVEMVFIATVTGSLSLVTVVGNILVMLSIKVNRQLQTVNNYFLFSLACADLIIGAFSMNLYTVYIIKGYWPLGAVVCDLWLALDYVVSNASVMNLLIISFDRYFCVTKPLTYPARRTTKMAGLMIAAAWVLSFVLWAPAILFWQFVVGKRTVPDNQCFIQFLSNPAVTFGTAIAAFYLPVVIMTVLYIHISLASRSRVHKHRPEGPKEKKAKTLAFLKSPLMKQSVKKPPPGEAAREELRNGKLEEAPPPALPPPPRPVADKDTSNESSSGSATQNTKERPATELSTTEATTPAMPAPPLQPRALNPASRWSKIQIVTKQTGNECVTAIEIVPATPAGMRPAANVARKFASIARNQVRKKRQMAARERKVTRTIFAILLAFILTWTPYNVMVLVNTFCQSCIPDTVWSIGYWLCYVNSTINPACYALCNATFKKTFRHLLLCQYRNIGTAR
Nature of the series: M4 antagonist screen. It is filed as cell-based.

The next series deals with T3, Rat M1 (Rattus norvegicus, UniProt P08482).
T3 sequence (P08482 1-460): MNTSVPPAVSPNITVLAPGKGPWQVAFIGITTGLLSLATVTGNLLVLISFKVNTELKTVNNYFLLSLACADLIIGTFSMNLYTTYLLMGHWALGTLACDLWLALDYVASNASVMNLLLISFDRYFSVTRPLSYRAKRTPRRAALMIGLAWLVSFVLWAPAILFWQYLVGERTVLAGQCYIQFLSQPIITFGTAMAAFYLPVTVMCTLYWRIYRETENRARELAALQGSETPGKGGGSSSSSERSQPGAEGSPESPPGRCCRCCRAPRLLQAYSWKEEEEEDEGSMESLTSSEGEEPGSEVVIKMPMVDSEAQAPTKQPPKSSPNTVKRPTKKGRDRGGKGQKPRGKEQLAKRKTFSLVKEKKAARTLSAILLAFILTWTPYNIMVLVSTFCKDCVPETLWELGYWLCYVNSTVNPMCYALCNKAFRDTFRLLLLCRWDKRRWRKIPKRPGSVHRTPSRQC
Nature of the series: CRC screened as antagonist in presence of ACh EC80, Rat M1. Format: cell-based. The following applies: antagonist mode.

For a further series, the target named is T4, M1 (Rattus norvegicus, UniProt P08482).
T4 sequence (P08482 1-460): T3 sequence (P08482 1-460)
Nature of the series: M1 agonist screen. Format: cell-based. The following applies: for M1 activation when screened as an agonist: agonist mode.

For series [1] the following is noted: cited from earlier work.
The next series deals with T5, rM4 (Rattus norvegicus, UniProt P08485).
T5 sequence (P08485 1-478): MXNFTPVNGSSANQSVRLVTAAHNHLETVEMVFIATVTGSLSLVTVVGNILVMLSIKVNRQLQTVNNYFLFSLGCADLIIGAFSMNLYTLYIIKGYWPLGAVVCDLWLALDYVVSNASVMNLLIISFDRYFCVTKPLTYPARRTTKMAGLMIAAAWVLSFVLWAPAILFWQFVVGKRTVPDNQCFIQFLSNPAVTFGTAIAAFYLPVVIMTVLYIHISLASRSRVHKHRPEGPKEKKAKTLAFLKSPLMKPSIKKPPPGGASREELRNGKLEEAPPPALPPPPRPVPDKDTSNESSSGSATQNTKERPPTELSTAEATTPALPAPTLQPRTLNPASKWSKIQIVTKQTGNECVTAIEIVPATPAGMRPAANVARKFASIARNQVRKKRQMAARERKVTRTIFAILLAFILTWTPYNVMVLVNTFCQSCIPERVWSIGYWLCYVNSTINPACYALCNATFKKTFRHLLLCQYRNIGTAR
Nature of the series: CRC screened as antagonist in presence of ACh EC80, rM4. It is filed as cell-based.

A further series addresses T6, hM1 (Homo sapiens, UniProt P11229).
T6 sequence (P11229 1-460): T3 sequence (P08482 1-460) with V5A, S254T, S309P, K320R, G337A, V413I
As to conditions: screened as agonist.

The next series addresses rM3 (Rattus norvegicus, UniProt P08483). Nature of the series: CRC screened as antagonist in presence of ACh EC80, rM3. Format: cell-based. As to conditions: antagonist mode.
The next series has as its target T7, rM5 (Rattus norvegicus, UniProt P08911).
T7 sequence (P08911 1-531): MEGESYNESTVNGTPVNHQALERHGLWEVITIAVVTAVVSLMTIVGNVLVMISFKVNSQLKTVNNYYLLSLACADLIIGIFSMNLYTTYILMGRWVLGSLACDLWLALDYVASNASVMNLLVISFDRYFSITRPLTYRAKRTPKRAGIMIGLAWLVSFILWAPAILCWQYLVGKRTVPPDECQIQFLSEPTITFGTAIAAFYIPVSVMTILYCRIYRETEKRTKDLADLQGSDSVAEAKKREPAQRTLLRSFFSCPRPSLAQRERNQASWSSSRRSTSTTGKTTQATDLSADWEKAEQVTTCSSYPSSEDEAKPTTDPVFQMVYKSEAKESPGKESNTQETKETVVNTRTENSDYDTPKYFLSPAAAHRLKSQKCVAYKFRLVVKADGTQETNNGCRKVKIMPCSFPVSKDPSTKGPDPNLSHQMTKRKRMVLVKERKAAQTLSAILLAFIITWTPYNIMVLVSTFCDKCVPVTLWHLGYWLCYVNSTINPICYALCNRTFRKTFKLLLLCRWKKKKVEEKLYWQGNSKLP
Nature of the series: CRC screened in agonist mode, rM5. It is filed as cell-based.

The target in a further series is T8, hM2 (Homo sapiens, UniProt P08172).
T8 sequence (P08172 1-466): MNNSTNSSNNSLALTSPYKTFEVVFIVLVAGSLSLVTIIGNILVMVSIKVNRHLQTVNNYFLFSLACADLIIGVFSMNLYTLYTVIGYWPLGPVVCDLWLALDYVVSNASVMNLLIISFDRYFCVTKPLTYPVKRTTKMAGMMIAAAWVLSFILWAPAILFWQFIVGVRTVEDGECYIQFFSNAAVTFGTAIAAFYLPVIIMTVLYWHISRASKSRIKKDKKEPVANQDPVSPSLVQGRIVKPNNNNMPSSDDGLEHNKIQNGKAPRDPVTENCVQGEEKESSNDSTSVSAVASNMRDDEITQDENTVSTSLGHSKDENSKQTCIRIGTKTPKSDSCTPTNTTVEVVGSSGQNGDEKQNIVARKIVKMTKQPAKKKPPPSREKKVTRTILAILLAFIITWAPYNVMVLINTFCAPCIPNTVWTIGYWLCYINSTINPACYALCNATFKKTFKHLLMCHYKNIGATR
Nature of the series: Human CRC screened as antagonist, hM2. It is filed as cell-based. The following applies: ACh EC80.

Another series has as its target T9, rM2 (Rattus norvegicus, UniProt P10980).
T9 sequence (P10980 1-466): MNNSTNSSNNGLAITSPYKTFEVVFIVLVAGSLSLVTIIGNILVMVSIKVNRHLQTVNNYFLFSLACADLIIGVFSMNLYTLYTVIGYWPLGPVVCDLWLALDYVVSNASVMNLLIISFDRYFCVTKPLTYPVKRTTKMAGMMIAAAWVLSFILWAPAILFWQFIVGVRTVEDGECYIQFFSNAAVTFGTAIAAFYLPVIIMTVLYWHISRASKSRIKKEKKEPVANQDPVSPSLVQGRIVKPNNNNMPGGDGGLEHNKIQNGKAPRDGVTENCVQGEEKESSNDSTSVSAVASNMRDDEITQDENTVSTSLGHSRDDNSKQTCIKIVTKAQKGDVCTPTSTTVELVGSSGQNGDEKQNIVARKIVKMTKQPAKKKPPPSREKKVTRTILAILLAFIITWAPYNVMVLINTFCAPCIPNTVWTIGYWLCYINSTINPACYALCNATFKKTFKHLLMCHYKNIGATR
Nature of the series: CRC screened as antagonist in presence of ACh EC80, rM2. It is filed as cell-based. The following applies: antagonist mode.

rM3, sequence (P08483 whole entry): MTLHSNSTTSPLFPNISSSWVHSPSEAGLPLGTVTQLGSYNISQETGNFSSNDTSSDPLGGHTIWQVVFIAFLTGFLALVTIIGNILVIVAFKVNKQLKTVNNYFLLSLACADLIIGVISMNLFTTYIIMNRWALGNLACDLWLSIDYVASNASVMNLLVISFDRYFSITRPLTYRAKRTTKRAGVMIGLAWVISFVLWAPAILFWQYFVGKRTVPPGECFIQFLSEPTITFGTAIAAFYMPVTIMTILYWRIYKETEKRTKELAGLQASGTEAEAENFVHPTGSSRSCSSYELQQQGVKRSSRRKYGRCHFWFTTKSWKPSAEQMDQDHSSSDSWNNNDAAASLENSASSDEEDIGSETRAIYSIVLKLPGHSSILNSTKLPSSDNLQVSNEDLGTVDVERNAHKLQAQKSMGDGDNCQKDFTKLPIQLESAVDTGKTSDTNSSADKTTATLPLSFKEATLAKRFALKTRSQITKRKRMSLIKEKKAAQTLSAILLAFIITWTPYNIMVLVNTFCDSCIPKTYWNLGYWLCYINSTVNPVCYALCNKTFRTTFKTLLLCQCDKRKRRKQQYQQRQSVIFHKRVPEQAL

In the case of `CCOC(=O)N1CCC(N2CCC[C@@H](NC(=O)c3ccc(C(F)(F)F)nc3)C2)CC1` [compound 16], the IC50 at M5 and against M4 was > 10 µM throughout.
`Cc1ccccc1CN1CCC(N2CC3CC(n4c(=O)[nH]c5ccccc54)CC3C2)CC1` (stereo not shown) [compound 10]: at Rat M1, the “Rat M1 % ACh Max” value is reported as −1.07±1.3 % ACh Max and the “Rat M1 pIC50” value came out at 5.20±0.04. Further, the “M1 activation when screened as an agonist” value on M1 was “neither 9 nor 10 elicited M1 activation”.
Consider `Cc1ccccc1CN1CCC(N2CCC(n3c(=O)[nH]c4ccccc43)C(F)C2)CC1` (stereo not shown) [compound 9], for which, on M1, the “M1 activation when screened as an agonist” value is “neither 9 nor 10 elicited M1 activation”. Further, the “pKa of the central piperidine nitrogen atom” value in series [1] is on record as 9.4. Moreover, the IC50 at rM4 was > 10 µM. Also, at rM4 (antagonist mode, ACh EC80), the “rM4 % ACh Max” value was determined as 26.6±3.4 % ACh Max and the “rM4 pIC50” value was 5.29±0.09.
For `CCOC(=O)N1CCC(N2CCC[C@@H](NC(=O)c3cccc(Br)c3)C2)CC1` [compound 14], at M1, the “M1 pEC50” value came to 5.69±0.08.
With `Cc1ccccc1CN1CCC(N2CCC(n3c(=O)[nH]c4ccccc43)CC2)CC1` [TBPB], the “hM1 % ACh Max” value at hM1 amounted to 40 % ACh Max. At rM3, the “rM3 pIC50” value came out at 5.26. The EC50 on rM5 is > 30 µM. Besides, the “hM2 pIC50” value on hM2 was found to be 5.46. On rM2, the “rM2 pIC50” value turned out to be 5.89.
